From patent US9944589B2, “Cycloproplyamine derivatives useful as inhibitors of histone demethylases KDM1A” (Istituto Europeo de Oncologia S.r.L., priority 2012, dated 2018)
Structures can show the parent of a compound that is named as a salt.

Columns and labels:
[1] = system: mouse model of leukemia resembling the human acute promyelocytic leukemia; test: In vivo activity, mouse leukemia model, splenomegaly as read out of blast infiltration; conditions: orally, 30 mg/kg, 4 days, leukemic mice
Experimental: The in vivo activity was conducted on a mouse model as characterized by Minucci et al. (Minucci S. et al. Blood 2002, 100, 2989-2995) The model is characterized by the development of leukemia, resembling the human acute promyelocytic leukemia, which is associated to a blast infiltration of several organs as bone marrow, liver and particularly of the spleen. In the conducted experiment, splenomegaly was studied as read out of blast infiltration and development of leukemia.
For the in vivo analysis, one million of leukemic cells (obtained from 129SvEv mice, Minucci S. et al. Blood 2002, 100, 2989-2995, obtained from Taconic, One Hudson City Centre Hudson, N.Y. (USA)) were injected intravenously into non-irradiated syngenic recipients. Treatment started once blast cells are detected in the recipients' peripheral blood (9 days after injection). The compounds were intravenously or orally administered at doses of 10 and 30 mg/kg for 4 days. […] after blast injection the mice were sacrificed and the spleens recovered. The weights of the spleen of the mice of the vehicle groups as well as of the treated groups were registered and used as evidence of effect on blast infiltration. […]
Compound A-36 administered orally at 30 mg/kg determined a reduction of the spleen weight of around 50% compared to mice treated with the vehicle (40% PEG-400, 60% aqueous solution containing 5% glucose) alone.

Human recombinant MAO B = target: T1, Human recombinant MAO B (Homo sapiens, UniProt P27338); conditions: ratio of IC50 against MAO-B over IC50 for LSD1
T1 sequence (P27338 1-520): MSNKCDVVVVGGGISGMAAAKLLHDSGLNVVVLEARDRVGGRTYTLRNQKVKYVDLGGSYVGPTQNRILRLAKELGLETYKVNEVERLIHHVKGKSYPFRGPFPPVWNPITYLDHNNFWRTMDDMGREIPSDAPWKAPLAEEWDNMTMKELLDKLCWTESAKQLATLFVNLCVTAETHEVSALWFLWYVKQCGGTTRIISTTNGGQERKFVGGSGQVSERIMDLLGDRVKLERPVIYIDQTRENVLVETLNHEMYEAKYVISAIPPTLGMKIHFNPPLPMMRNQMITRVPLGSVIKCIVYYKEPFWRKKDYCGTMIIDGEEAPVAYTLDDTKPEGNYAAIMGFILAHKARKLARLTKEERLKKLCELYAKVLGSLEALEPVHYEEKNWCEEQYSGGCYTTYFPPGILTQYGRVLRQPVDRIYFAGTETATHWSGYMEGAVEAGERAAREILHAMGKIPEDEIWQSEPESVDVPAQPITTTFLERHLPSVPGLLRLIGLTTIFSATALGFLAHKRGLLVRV
Experimental: The MAO-Glo Assay from Promega (cat. V1402, Promega, Madison, Wis.) was used to measure the effect of inhibitors on MAO-A and MAO-B activity.
After 30 minutes of incubation the reaction was stopped with the Promega detection reagent. The experiments were carried out in duplicate. IC50 was calculated using GraphPad Prism version 4.0 (GraphPad Software, San Diego, Calif.).

[2] = system: Acute promyelocytic leukemia NB4 cells; test: Cell growth (CellTiter-Fluor cell viability assay); format: cell-based; conditions: Homo sapiens, NB-4, 48 h, range classes, read-out: IC50 [μM], cell growth inhibitory assay
Excerpt: CellTiter-Flor® (Promega) is as a nonlytic, single-reagent-addition fluorescence assay that measures the relative number of living cells in a culture population after experimental manipulation. The CellTiter-Fluor™ Cell Viability Assay measures the conserved and constitutive protease activity within live cells and therefore acts as a marker for cell viability.
Acute promyelocytic leukemia NB4 cells, (obtained from the Deutsche Sammlung von Mikroorganismen and Zellkulturen) in exponential growth, were incubated for 48 h with different concentrations of the inhibitors. After 48 h a volume of CellTiter-Fluor® Reagent equal to one fifth of volume of cell culture medium was added. The content was mixed and incubates for at least 90 min at 37° C. degree to obtain a stable signal. The fluorescence was recorded using an excitation wavelength of 360 nm and an emission at 535 nm. The IC50 was calculated using GraphPad Software.

[3] = target: T2, human recombinant KDM1A (LSD1)/CoRest (Homo sapiens, UniProt O60341); test: Assay of enzyme inhibition of KDM1A (LSD1), Amplex UltraRed/peroxidase coupled; format: biochemical; conditions: 15 min preincubation, 4.5 μM mono-methylated H3-K4 peptide, range classes, read-out: IC50 [μM], KDM1A inhibition assay
T2 construct: made in house; host or cells: E. coli
In short: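 KDM1A/CoRest complex with inhibitor (e.g. 0–100 μM) and Amplex UltraRed/peroxidase preincubated 15 min at RT. Substrate: mono-methylated H3K4 21-mer peptide in 50 mM Tris pH 8, 0.05 mg/ml BSA, aerobic. IC50 from duplicates run twice, background-corrected.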

IC50 (MAO-B)/IC50 (LSD1) (Human recombinant MAO B) | IC50 [2] [µM] | IC50 [3] [µM] | SMILES | reduction of the spleen weight compared to mice treated with the vehicle [1]
– | 50 to 100 | 1 to 5 | N[C@]1(CNCc2ccccc2)C[C@H]1c1ccccc1 (relative stereo) [Example B-3, trans-1-(benzylamino)methyl-2-phenyl-cyclopropanamine dihydrochloride] | –
– | 10 to 50 | 0.1 to 1 | CN1CCN(C(=O)CN[C@]2(Cc3ccc4ccccc4c3)C[C@H]2c2ccccc2)CC1 (relative stereo) [Example C-24, 1-(4-methylpiperazin-1-yl)-2-[[trans-1-(2-naphthylmethyl)-2-phenyl-cyclopropyl]amino]ethanone dihydrochloride] | –
– | 10 to 50 | 0.1 to 1 | N[C@]1(c2ccc([N+](=O)[O-])cc2)C[C@H]1c1ccccc1 (relative stereo) [Example D-3, trans-1-(4-nitrophenyl)-2-phenyl-cyclopropanamine hydrochloride] | –
– | 50 to 100 | 0.1 to 1 | N[C@]1(c2ccccc2)C[C@H]1c1ccc(Cl)cc1 (relative stereo) [Example D-4, trans-2-(4-chlorophenyl)-1-phenyl-cyclopropanamine hydrochloride] | –
– | 10 to 50 | < 0.1 | N[C@]1(c2ccccc2)C[C@H]1c1ccc(Br)cc1 (relative stereo) [Example D-5, trans-2-(4-bromophenyl)-1-phenyl-cyclopropanamine hydrochloride] | –

Further lines, the compound ahead of its results:

SMILES | IC50 (MAO-B)/IC50 (LSD1) (Human recombinant MAO B) | IC50 [2] [µM] | IC50 [3] [µM] | reduction of the spleen weight compared to mice treated with the vehicle [1]
CC[C@@]1(N)C[C@H]1c1ccc(NC(=O)c2ccc(-c3ccccc3)cc2)cc1 (relative stereo) [Example A-36, N-[4-[(trans)-2-amino-2-ethyl-cyclopropyl]phenyl]-4-phenyl-benzamide hydrochloride] | 16 | ≤ 10 | – | around 50%
CC[C@]1(N)C[C@@H]1c1ccc(NC(=O)c2ccccc2)cc1.Cl (relative stereo) [Example A-47, N-[4-[trans-2-amino-2-ethyl-cyclopropyl]phenyl]benzamide hydrochloride] | >100 | – | < 0.1 | –
CC[C@@]1(N)C[C@H]1c1ccc(NC(=O)c2ccc(-c3ccoc3)cc2)cc1 (relative stereo) [Example A-78, N-[4-[trans-2-amino-2-ethyl-cyclopropyl]phenyl]-4-(3-furyl) benzamide hydrochloride] | 60 | ≤ 10 | < 0.1 | –
CC[C@@]1(N)C[C@H]1c1ccc(NC(=O)c2cccc(N3CCOC3=O)c2)cc1 (relative stereo) [Example A-98, N-[4-[trans-2-amino-2-ethyl-cyclopropyl]phenyl]-3-(2-oxooazolidin-3-yl)benzamide 2,2,2-trifluoroacetic acid] | >100 | ≤ 10 | < 0.1 | –
N[C@]1(CCc2ccccc2)C[C@H]1c1ccc(NC(=O)c2ccc(-c3ccccc3)cc2)cc1 (relative stereo) [Example A-113, N-[4-(trans-2-amino-2-phenethyl-cyclopropyl)phenyl]-4-phenyl-benzamide hydrochloride] | – | ≤ 10 | 0.1 to 1 | –
N[C@]1(CCc2ccccc2)C[C@H]1c1ccc(NC(=O)c2ccccc2)cc1 (relative stereo) [Example A-114, N-[4-trans-2-amino-2-phenethyl-cyclopropyl)phenyl] benzamide hydrochloride] | >100 | ≤ 10 | < 0.1 | –
CN1CCC(c2ccc(C(=O)Nc3ccc([C@@H]4C[C@]4(N)CCc4ccccc4)cc3)cc2)CC1 (relative stereo) [Example A-115, N-[4-(trans-2-amino-2-phenethyl-cyclopropyl)phenyl]-4-(1-methyl-4-piperidyl)benzamide dihydrochloride] | – | ≤ 10 | < 0.1 | –
CN1CCN(c2ccc(C(=O)Nc3ccc([C@@H]4C[C@]4(N)CCc4ccccc4)cc3)cc2)CC1 (relative stereo) [Example A-116, N-[4-(trans-2-amino-2-phenethyl-cyclopropyl)phenyl]-4-(4-methylpiperazin-1-yl)benzamide dihydrochloride] | >100 | ≤ 10 | < 0.1 | –
CC[C@@]1(N)C[C@H]1c1ccc(NC(=O)c2ccc(N3CCN(C)CC3)c(NC(=O)OCc3ccccc3)c2)cc1 (relative stereo) [Example A-117, benzyl N-[5-[[4-[trans-2-amino-2-ethyl-cyclopropyl]phenyl]carbamoyl]-2-(4-methylpiperazin-1-yl)phenyl] carbamate 2,2,2-trifluoroacetic acid] | – | ≤ 10 | 0.1 to 1 | –
N[C@]1(CCc2ccccc2)C[C@H]1c1ccc(NC(=O)c2cccc(N3CCOC3=O)c2)cc1 (relative stereo) [Example A-118, N-[4-(trans-2-amino-2-phenethyl-cyclopropyl)phenyl]-3-(2-oxooxazolidin-3-yl)benzamide 2,2,2-trifluoroacetic acid] | – | ≤ 10 | < 0.1 | –
CC[C@@]1(N)C[C@H]1c1ccc(-n2cc(-c3cccc(NC(=O)OCc4ccccc4)c3)nn2)cc1 (relative stereo) [Example A-121, Benzyl N-[3-[1-[4-[trans-2-amino-2-ethyl-cyclopropyl]phenyl]triazol-4-yl]phenyl]carbamate hydrochloride] | – | 50 to 100 | 0.1 to 1 | –
CC[C@@]1(N)C[C@H]1c1cccc(-n2cc(-c3ccccc3)nn2)c1 (relative stereo) [Example A-122, trans-1-ethyl-2-[3-(4-phenyltriazol-1-yl)phenyl]cyclopropan amine hydrochloride] | – | 10 to 50 | 0.1 to 1 | –
N[C@]1(Cc2ccc3ccccc3c2)C[C@H]1c1ccc(-n2cc(-c3ccccc3)nn2)cc1 (relative stereo) [Example A-124, trans-1-(2-naphthylmethyl)-2-[4-(4-phenyltriazol-1-yl)phenyl]cyclopropan amine hydrochloride] | – | 10 to 50 | 0.1 to 1 | –
N[C@]1(Cc2ccc3ccccc3c2)C[C@H]1c1ccc(OCc2ccccc2)cc1 (stereo in doubt) [Example A-67, 2-(4-benzyloxyphenyl)-1-(2-naphthylmethyl) cyclopropanamine hydrochloride] | – | 10 to 50 | 0.1 to 1 | –
N[C@]1(Cc2ccc3ccccc3c2)C[C@H]1c1ccc(NC(=O)c2ccccc2)cc1 [Example A-44, N-[4-[tyrans-2-amino-2-(2-naphthylmethyl)cyclopropyl]phenyl] benzamide hydrochloride] | – | ≤ 10 | < 0.1 | –
